Reference: patent US20210361600A1, “METHODS FOR INDUCING CHONDROGENESIS” (THE SCRIPPS RESEARCH INSTITUTE, priority 2017, published 2021)
“Also recorded” adds a separate entry of the source.

Tests used:
[1] = system: Rat Medial Meniscal Tear Model; assay: Effect of dose frequency of compound A in a rat medial meniscal tear model; assay type: in vivo, Lewis rats
Description: The vehicle was prepared separately, then added to aliquots of compound A powder, and the mixture was then vortexed until it becomes a clear solution. Dosing solutions were prepared for doses of 3.5 and 0.35 μg/kg (100 μM and 10 μM respectively). Dosing volume was set to 30 μL/knee. Dosing solutions were prepared fresh weekly.
Fourteen-week-old male Lewis rats (Charles River, Kingston, N.Y.) were in the weight range of 300-320 g at the start of the study
Rats were sorted based on body weight into 8 study groups of 15 rats. They were surgerized and enrolled in a staggered fashion across one week (20 animals per day for 6 days). Briefly, animals were anesthetized with a ketamine/xylazine cocktail (50 mg/kg Ketaved—Henry Schein, and 5 mg/kg Xyalzine—AniSed respectively) by intraperitoneal injection, administered appropriate analgesics (Flunixin, 5 mg/kg subcutaneous injection), and the surgical site shaved and disinfected. A small incision was made on the medial right hind knee to expose the collateral ligament. The collateral ligament was transected and the joint capsule opened sufficiently to expose the medial meniscus. The meniscus was transected completely, then the skin incision was closed, and pressure applied to the wound to prevent hematoma development. Animals were allowed to recover on a heated blanket and were returned to their home cage. Sham procedures were carried out in a similar fashion, except the medial meniscus was not cut. All surgical procedures were performed aseptically and all procedures were approved by the institute IACUC. Animals were monitored daily for the following week for postoperative care prior to dosing. Any animals with atypical healing (bruising/hematoma) were removed from the study and replaced with spare animals.
Animals were weighed weekly at the time of dosing (8-10 am), and a standardized dose of 30 μl of either vehicle or compound was administered via injection into the intra-articular space according to the regimens outlined above (groups A, B, E and H dosed once weekly, groups C and F dosed every other week, and groups D and G dosed once for the duration of the study). Animals were dosed using a Hamilton syringe with a 27 G needle attached. On study day 28, animals were euthanized, a terminal blood sample collected, and knees were harvested and placed in formalin jars for histology analysis and pathology scoring.
Analysis of the knee joint histology was performed by Bolder BioPATH. A variety of measurements to characterize the lesions were performed to score the joints based on lesion depth, severity, and overall size.

in vivo [2] = conditions: dog, iv; for AUC(0-t): AUC0-t
[3] = system: Canine Model of Osteoarthritis; assay: Efficacy of compound A in a canine model of osteoarthritis; assay type: in vivo, Beagle dogs
Description: The clear solution was then filtered in a 0.45 μm filter prior to intraarticular dose. Dosing solution was prepared fresh on the day of dosing.
Twelve to fifteen-month-old female naïve Beagle dogs were obtained from Marshall BioResouces (North Rose, N.Y.) with a weight range of 5.4 to 9.3 kilograms.
The goal was to sort and ensure that behavioral characteristics were shared among all groups, so that the activity level and use of the joints while not in regimented exercise would be uniform between groups. In addition to sorting by temperament, animals were also sorted by body weights, with equal distribution between study groups. Animals were acclimated to an exercise regimen of 1 hour of walking/running/playing prior to study start.
Animals were food deprived prior to surgery, anesthetized using propofol (6 mg/kg, IV), and maintained on isoflurane (3-4%) in oxygen (2 L/min) for the duration of the procedure (10-15 minutes). The right rear knee was shaved and aseptically prepared. A medial skin incision was made to expose the collateral ligament. A portion of the medial meniscus was cut (a wedge roughly half the width of the medial meniscus was removed). The joint capsule and subcutis were closed with sutures, and skin closed with wound clips. Sham animals were treated in the same manner except for the medial meniscus partial transection. All animals were allowed to recover for 10-11 days prior to dosing. Three days after surgery, all animals began an exercise regimen of one hour of continuous exercise (walking/running/playing), to ensure that the animals were using the surgerized leg and to allow for a more uniform development of lesions across a group of differently tempered dogs.
All animals were exercised 5 days a week for an hour for the duration of the study. At study day 10/11, animals began receiving weekly injections of either compound or vehicle into the surgerized joint. Blood samples were also taken pre-dose for all animals for compound determination. Animals received doses at day 10, 17, 24, 31, 38, and 45 post surgery. All intraarticular doses were standardized to 0.5 mL injections into the joint capsule via injection through the patellar ligament.
On day 52, animals received a terminal blood sample and were euthanized. Plasma samples were used for biomarker determination. Urine and synovial fluid was collected at necropsy, and the knees were harvested for histology and pathology analysis.
Osteoarthritic lesions were scored based on lesion size, depth, severity and changes in subchondral bone and osteophyte formation. Both the femur and the tibia on either side of the meniscal cut were examined. Statistical analysis used Student's two-tailed test or Mann-Whitney U Test (non-parametric).
For terminal plasma samples, biomarker ELISAs were run to quantify levels of PIINP. The kit procedures were followed as per manufacturer's instructions. Data were analyzed with a Student's t-test.

in vivo [4] = conditions: male, Crl:CD(SD), rat, 2.1 ug
CBFβ = CBFβ nuclear localization in hMSCs (Western blotting); assay type: cell-based, human; conditions: hMSCs, 1, 10 and 100 nM, 1 hour
Description: Primary human MSCs were obtained from Cell Applications. The hMSCs were grown in Mesenchymal Stem Cell expansion media and used between passage 2 and 8 for all experiments. Nuclear cell lysate fractionation and western blotting
The cells were scraped off the dishes mechanically, and pipetted gently to break the cell debris. The cell lysate was centrifuged at 2000 rpm at 4° C. for 5 min and the supernatant was saved as the cytosolic fraction. The pellet was washed with washing buffer (20 mM HEPES, pH 7.9, 20% glycerol, 0.2 mM EDTA, 1 mM DTT and protease inhibitor cocktail) once and centrifuged at 2000 rpm for 5 min. The supernatant was discarded, the pellets were suspended in nuclear extraction buffer (2 mM HEPES, pH7.9, 400 mM NaCl, 20% glycerol, 0.2 mM EDTA, 1 mM DTT and protease inhibitor cocktail) and then incubated on ice for 45 min. The mixture was centrifuged at 13,000 rpm for 15 min at 4° C., and the supernatant was saved as nuclear fraction.
Proteins were resolved using SDS-PAGE gel electrophoresis, transferred to a PVDF membrane using semi-dry blotting cell. The membrane was blocked in blocking buffer (LiCor) for 1 hr at room temperature, followed by incubation with primary antibody in blocking buffer at 4° C. overnight. […]

[5] = 0.035 mg/knee IA weekly for 6 weeks, vs vehicle

COCCc1ccc(NC(=O)c2ccccc2NS(C)(=O)=O)cc1 [Compound A, N-(4-(2-methoxyethyl)phenyl)-2-(methylsulfonamido)benzamide]
combined cartilage degeneration widths with scores from mild to severe ([1]; 10 μM (0.105 μg/knee) IA once every other week, vs vehicle): statistically significant improvement
substantial cartilage degeneration width ([1]; 10 μM (0.105 μg/knee) IA once weekly or once every other week, vs vehicle): improvement
mild-to-severe degeneration widths ([1]; 10 μM (0.105 μg/knee) IA weekly): trend towards a reduction
adverse effects ([1]; IA, any dosing schedule (once weekly, once every other week, once per study), 100 μM or 10 μM): no adverse effects
progression of cartilage degeneration ([1]; dosing once every four weeks): did not demonstrate an effect
width of cartilage lesions where greater than 10% of the cartilage is damaged or lost ([1]; dosing once every other week): significant reduction
most severe cartilage lesions ([1]; not statistically significant): trend towards an improvement
half-life (in vivo [2]; both, beagle): 38.4 to 55.8 min
AUC(0-t) (in vivo [2]; female, Beagle, 0.125 mg/kg): 131 ng·h/mL
Cmax (in vivo [2]; female, Beagle, 0.125 mg/kg): 181 ng/mL
AUC(0-t) (in vivo [2]; female, Beagle, 0.6 mg/kg): 1230 ng·h/mL
Cmax (in vivo [2]; female, Beagle, 0.6 mg/kg): 1330 ng/mL
AUC(0-t) (in vivo [2]; female, Beagle, 1.25 mg/kg): 2150 ng·h/mL
Cmax (in vivo [2]; female, Beagle, 1.25 mg/kg): 2460 ng/mL
Vd (in vivo [2]; female, beagle): 0.534 to 0.855 L/kg
clearance (in vivo [2]; female, beagle): 8.2 to 16.4 mL/min/kg
AUC(0-t) (in vivo [2]; female, beagle, 0.125 mg/kg): 178 ng·h/mL
AUC(0-t) (in vivo [2]; female, beagle, 0.6 mg/kg): 1200 ng·h/mL
Vd (in vivo [2]; male, beagle): 0.44 to 0.692 L/kg
clearance (in vivo [2]; male, beagle): 7.25 to 11.4 mL/min/kg
AUC(0-t) (in vivo [2]; male, beagle, 0.125 mg/kg): 181 ng·h/mL
Cmax (in vivo [2]; male, beagle, 0.125 mg/kg): 308 ng/mL
AUC(0-t) (in vivo [2]; male, beagle, 0.6 mg/kg): 1190 ng·h/mL
Cmax (in vivo [2]; male, beagle, 0.6 mg/kg): 2100 ng/mL
AUC(0-t) (in vivo [2]; male, beagle, 1.25 mg/kg): 2600 ng·h/mL
Cmax (in vivo [2]; male, beagle, 1.25 mg/kg): 2580 ng/mL
degree of substantial cartilage degeneration in the femur [3, 5]: significantly improved; also recorded: significant reduction
level of bone sclerosis [3, 5]: reduced; also recorded: improved
width of total cartilage degeneration (all severities), femur [3, 5]: no effect
tibial cartilage damage ([3]; effect not statistically significant): less severe
circulating PIINP in plasma (ELISA) ([3]; terminal samples 1 week post final dose, vs vehicle): significantly elevated
Cmax (in vivo [4]): 13.8 ng/mL
CBFβ levels in the nuclear fraction (CBFβ): increase
